{
  "source": "patent US9993494B2",
  "about": "“Compositions and methods for treating fibrotic disease” (eFFECTOR Therapeutics, Inc., priority 2014, dated 2018)",
  "test_system": "normal human lung fibroblasts",
  "assay": "Ribosomal profiling: translational efficiency in TGFβ-treated fibroblasts",
  "assay_type": "cell-based",
  "conditions": "TGFβ-treated fibroblasts",
  "in_short": "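Cells lysed on ice after a cold PBS wash containing cycloheximide. Ribosome-protected fragments and total mRNA were prepared with the ARTseq kit and sequenced by RNA-Seq. Reads were trimmed, mapped to the human genome and counted uniquely over coding regions per gene, with low-count genes excluded before differential translational-efficiency analysis.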",
  "data": [
    {"compound": "CC(C)n1nc(-c2cc3cc(O)ccc3[nH]2)c2c(N)ncnc21", "note": "[PP242]", "values": [
      {"measurement": "renormalizing the translational profile of COX7C", "setting": "ENSG00000127184", "value": "− (− = <0.9)"},
      {"measurement": "renormalizing the translational profile of LIF", "setting": "ENSG00000128342", "value": "− (− = <0.9)"},
      {"measurement": "renormalizing the translational profile of MTUS1", "setting": "ENSG00000129422", "value": "+ (+ = 0.9 to 1.5)"},
      {"measurement": "renormalizing the translational profile of ARHGEF6", "setting": "ENSG00000129675", "value": "− (− = <0.9)"},
      {"measurement": "renormalizing the translational profile of RPL36", "setting": "ENSG00000130255", "value": "− (− = <0.9)"},
      {"measurement": "renormalizing the translational profile of GDF15", "setting": "ENSG00000130513", "value": "− (− = <0.9)"},
      {"measurement": "renormalizing the translational profile of ASS1", "setting": "ENSG00000130707", "value": "− (− = <0.9)"},
      {"measurement": "renormalizing the translational profile of EIF2S3", "setting": "ENSG00000130741", "value": "− (− = <0.9)"},
      {"measurement": "renormalizing the translational profile of RPL27", "setting": "ENSG00000131469", "value": "− (− = <0.9)"},
      {"measurement": "renormalizing the translational profile of MATN3", "setting": "ENSG00000132031", "value": "− (− = <0.9)"},
      {"measurement": "renormalizing the translational profile of PPARG", "setting": "ENSG00000132170", "value": "− (− = <0.9)"},
      {"measurement": "renormalizing the translational profile of RARRES3", "setting": "ENSG00000133321", "value": "− (− = <0.9)"},
      {"measurement": "renormalizing the translational profile of BIVM", "setting": "ENSG00000134897", "value": "+ (+ = 0.9 to 1.5)"},
      {"measurement": "renormalizing the translational profile of ATP5G2", "setting": "ENSG00000135390", "value": "+ (+ = 0.9 to 1.5)"},
      {"measurement": "renormalizing the translational profile of KRT7", "setting": "ENSG00000135480", "value": "− (− = <0.9)"},
      {"measurement": "renormalizing the translational profile of HNRNPA1", "setting": "ENSG00000135486", "value": "+ (+ = 0.9 to 1.5)"},
      {"measurement": "renormalizing the translational profile of IL6", "setting": "ENSG00000136244", "value": "− (− = <0.9)"},
      {"measurement": "renormalizing the translational profile of RPL35", "setting": "ENSG00000136942", "value": "− (− = <0.9)"},
      {"measurement": "renormalizing the translational profile of NOV", "setting": "ENSG00000136999", "value": "− (− = <0.9)"},
      {"measurement": "renormalizing the translational profile of IER3", "setting": "ENSG00000137331", "value": "− (− = <0.9)"},
      {"measurement": "renormalizing the translational profile of DDX60", "setting": "ENSG00000137628", "value": "− (− = <0.9)"},
      {"measurement": "renormalizing the translational profile of RPLP1", "setting": "ENSG00000137818", "value": "− (− = <0.9)"},
      {"measurement": "renormalizing the translational profile of PAQR5", "setting": "ENSG00000137819", "value": "− (− = <0.9)"},
      {"measurement": "renormalizing the translational profile of AOX1", "setting": "ENSG00000138356", "value": "− (− = <0.9)"},
      {"measurement": "renormalizing the translational profile of FGF5", "setting": "ENSG00000138675", "value": "++ (++ = 1.5 to 2.0)"},
      {"measurement": "renormalizing the translational profile of PDE5A", "setting": "ENSG00000138735", "value": "− (− = <0.9)"},
      {"measurement": "renormalizing the translational profile of GAS2L3", "setting": "ENSG00000139354", "value": "− (− = <0.9)"},
      {"measurement": "renormalizing the translational profile of DIAPH3", "setting": "ENSG00000139734", "value": "− (− = <0.9)"},
      {"measurement": "renormalizing the translational profile of MYO19", "setting": "ENSG00000141140", "value": "− (− = <0.9)"},
      {"measurement": "renormalizing the translational profile of RPL13A", "setting": "ENSG00000142541", "value": "− (− = <0.9)"},
      {"measurement": "renormalizing the translational profile of RPL11", "setting": "ENSG00000142676", "value": "− (− = <0.9)"},
      {"measurement": "renormalizing the translational profile of ACTA1", "setting": "ENSG00000143632", "value": "− (− = <0.9)"},
      {"measurement": "renormalizing the translational profile of PLEKHA6", "setting": "ENSG00000143850", "value": "− (− = <0.9)"},
      {"measurement": "renormalizing the translational profile of RPL32", "setting": "ENSG00000144713", "value": "− (− = <0.9)"},
      {"measurement": "renormalizing the translational profile of RPL37", "setting": "ENSG00000145592", "value": "− (− = <0.9)"},
      {"measurement": "renormalizing the translational profile of BTF3", "setting": "ENSG00000145741", "value": "− (− = <0.9)"},
      {"measurement": "renormalizing the translational profile of HIGD2A", "setting": "ENSG00000146066", "value": "+ (+ = 0.9 to 1.5)"},
      {"measurement": "renormalizing the translational profile of CREB5", "setting": "ENSG00000146592", "value": "− (− = <0.9)"},
      {"measurement": "renormalizing the translational profile of DENND2A", "setting": "ENSG00000146966", "value": "− (− = <0.9)"},
      {"measurement": "renormalizing the translational profile of RPL10", "setting": "ENSG00000147403", "value": "− (− = <0.9)"},
      {"measurement": "renormalizing the translational profile of EIF3H", "setting": "ENSG00000147677", "value": "− (− = <0.9)"},
      {"measurement": "renormalizing the translational profile of RPL7A", "setting": "ENSG00000148303", "value": "− (− = <0.9)"},
      {"measurement": "renormalizing the translational profile of EIF3M", "setting": "ENSG00000149100", "value": "− (− = <0.9)"},
      {"measurement": "renormalizing the translational profile of JPH2", "setting": "ENSG00000149596", "value": "− (− = <0.9)"},
      {"measurement": "renormalizing the translational profile of FAU", "setting": "ENSG00000149806", "value": "− (− = <0.9)"},
      {"measurement": "renormalizing the translational profile of CCDC102B", "setting": "ENSG00000150636", "value": "− (− = <0.9)"},
      {"measurement": "renormalizing the translational profile of FRMD4A", "setting": "ENSG00000151474", "value": "− (− = <0.9)"},
      {"measurement": "renormalizing the translational profile of HOMER1", "setting": "ENSG00000152413", "value": "− (− = <0.9)"},
      {"measurement": "renormalizing the translational profile of PLEKHH2", "setting": "ENSG00000152527", "value": "− (− = <0.9)"},
      {"measurement": "renormalizing the translational profile of ANKH", "setting": "ENSG00000154122", "value": "− (− = <0.9)"},
      {"measurement": "renormalizing the translational profile of ABCA6", "setting": "ENSG00000154262", "value": "− (− = <0.9)"},
      {"measurement": "renormalizing the translational profile of OBSCN", "setting": "ENSG00000154358", "value": "− (− = <0.9)"},
      {"measurement": "renormalizing the translational profile of ADAMTS5", "setting": "ENSG00000154736", "value": "− (− = <0.9)"},
      {"measurement": "renormalizing the translational profile of OXA1L", "setting": "ENSG00000155463", "value": "− (− = <0.9)"},
      {"measurement": "renormalizing the translational profile of C9orf85", "setting": "ENSG00000155621", "value": "+ (+ = 0.9 to 1.5)"},
      {"measurement": "renormalizing the translational profile of RPL30", "setting": "ENSG00000156482", "value": "− (− = <0.9)"},
      {"measurement": "renormalizing the translational profile of EEF1A1", "setting": "ENSG00000156508", "value": "+ (+ = 0.9 to 1.5)"},
      {"measurement": "renormalizing the translational profile of NRG1", "setting": "ENSG00000157168", "value": "− (− = <0.9)"},
      {"measurement": "renormalizing the translational profile of ADAMTS4", "setting": "ENSG00000158859", "value": "− (− = <0.9)"},
      {"measurement": "renormalizing the translational profile of RPL8", "setting": "ENSG00000161016", "value": "− (− = <0.9)"},
      {"measurement": "renormalizing the translational profile of RPL26", "setting": "ENSG00000161970", "value": "− (− = <0.9)"},
      {"measurement": "renormalizing the translational profile of RPL29", "setting": "ENSG00000162244", "value": "− (− = <0.9)"},
      {"measurement": "renormalizing the translational profile of CAMK2N1", "setting": "ENSG00000162545", "value": "− (− = <0.9)"},
      {"measurement": "renormalizing the translational profile of IGFBP7", "setting": "ENSG00000163453", "value": "− (− = <0.9)"},
      {"measurement": "renormalizing the translational profile of RPL22L1", "setting": "ENSG00000163584", "value": "− (− = <0.9)"},
      {"measurement": "renormalizing the translational profile of RPL9", "setting": "ENSG00000163682", "value": "− (− = <0.9)"}
    ]}
  ]
}
